Measurements published in patent US8202997B2, “Compositions and methods for treating or preventing hypoxic or ischemic injury” (Ikaria, Inc., priority 2008, dated 2012).

Key:
[1] = test system: myocardial ischemia-reperfusion (I/R) injury; assay: Murine myocardial ischemia reperfusion model; type: in vivo, mice
Description: The ability of compound (3-1) to provide cardioprotective benefits in a myocardial ischemia-reperfusion (I/R) injury model was tested in mice. In this study, it is shown that bolus administration of compound (3-1) into the left ventricular cavity post-ischemia and five minutes prior to a 24-hour reperfusion period reduced myocardial ischemia and reduced myocardial infarct size as a percentage of risk area. The mice used in these studies were C57-BL6/J mice, 8-10 weeks, (Jackson Laboratory, Bar Harbor, Me.). Food and water were provided ad libitum. Test animals were allowed to acclimate in a temperature and humidity controlled environment prior to the commencement of experimental procedures.
Mice were anesthetized with ketamine and pentobarbital sodium and maintained with warming during surgical procedures to induce myocardial ischemia-reperfusion (I/R) injury. […]
After 24 hours of reperfusion, post-ischemia, mice were anesthetized, intubated, and connected to a rodent ventilator. […] Each of the five myocardial slices (1-mm) were weighed, areas of infarction, area at risk (AAR), and non-ischemic left ventricle were assessed with computer-assisted planimetry by an observer blinded to sample identity. […]
Data were analyzed by 2-way ANOVA with post-hoc Bonferroni analysis using StatView software version 5.0 (SAS Institute). […]

[2] = test system: hepatic ischemia-reperfusion (I/R) injury; assay: Murine hepatic ischemia-reperfusion injury model; type: in vivo, mice; conditions: for serum liver transaminase (ALT) levels: C57-BL6/J mice, after five hours reperfusion, compared to vehicle
Description: The ability of compound (3-1) to provide cytoprotective benefit in a model of hepatic ischemia-reperfusion (I/R) injury was tested in mice.
The mice used in these studies were C57-BL6/J mice, 8-10 weeks, (Jackson Laboratory, Bar Harbor, Me.). Food and water were provided ad libitum. Test animals were allowed to acclimate in a temperature and humidity controlled environment prior to the commencement of experimental procedures.
Mice were anesthetized with ketamine and xylazine and maintained with warming during surgical procedures to induce hepatic ischemia-reperfusion (UR) injury. Specifically, a midline incision was performed to expose the liver, and heparin was injected to prevent blood clotting. Both the hepatic artery and portal vein were clamped with microaneurysm clamps to render the left lateral and median lobes of the liver ischemic. Ischemia proceeded for 45 minutes, with the liver maintained in the peritoneal cavity in its original location and kept moist with gauze soaked with 0.9% normal saline. Control mice received sham surgeries, although hepatic blood flow was not reduced with a microaneurysm clamp. At the end of 45 minutes, microaneurysm clamps were removed. Serum liver transaminase levels (ALT) were tested after five hours of hepatic reperfusion using spectrophotometry and commercially available reagents (Sigma-Aldrich).
Murine hepatic ischemia-reperfusion injury test animals were randomized to four groups. Group 1: vehicle (EtOH/PEG300+0.1% citric acid) treated; Group 2: treatment with 7 mg/kg Compound (3-1); Group 3: treatment with 15.0 mg/kg Compound (3-1). […] ALT levels were reduced in the two treatment groups (7.0 mg/kg, and 15.0 mg/kg), compared to vehicle.

## c1ccc(CSSSSCc2ccccc2)cc1 [Compound 3-1, 1,4-dibenzyltetrasulfane]
[1]; C57-BL6/J mice, 7 mg/kg bolus into left ventricular cavity after 30 minutes ischemia, five minutes prior to 24 hour reperfusion
  myocardial infarct size as a percentage of risk area: reduced
[1]; mice, bolus into left ventricular cavity post-ischemia, five minutes prior to 24-hour reperfusion
  myocardial ischemia: reduced
[2]; 7 mg/kg intraperitoneal bolus post-ischemia (45 min)
  serum liver transaminase (ALT) levels: statistically significant reduction
[2]; 15.0 mg/kg intraperitoneal bolus post-ischemia (45 min)
  serum liver transaminase (ALT) levels: reduced
[2]; mice, intraperitoneal bolus post-hepatic ischemia, immediately prior to five hour reperfusion, dose not given
  liver transaminase alanine aminotransferase (ALT) measured in serum: decreased
